Measured values as given in patent US20240425491A1, “HETEROARYL COMPOUNDS USEFUL IN THE TREATMENT OF COGNITIVE DISORDERS” (University College Cardiff Consultants Limited, priority 2021, published 2024).

What was measured:
[1] = molecular target: T1, human recombinant GABAAR containing α5β3γ2 subunits (benzodiazepine site) (Homo sapiens, UniProt P18507+P31644); test: In vitro radioligand binding assay (α5-GABAAR Ki); conditions: inhibition of [3H]Ro15-1788 binding, membranes of L(tk−) cells expressing human α5β3γ2; read-out: α5-GABAAR Ki
T1 construct: expressed in transfected cells; host or cells: mouse L(tk−) cells, dexamethasone-inducible vector pMSGneo
T1 sequence (P31644 32-462): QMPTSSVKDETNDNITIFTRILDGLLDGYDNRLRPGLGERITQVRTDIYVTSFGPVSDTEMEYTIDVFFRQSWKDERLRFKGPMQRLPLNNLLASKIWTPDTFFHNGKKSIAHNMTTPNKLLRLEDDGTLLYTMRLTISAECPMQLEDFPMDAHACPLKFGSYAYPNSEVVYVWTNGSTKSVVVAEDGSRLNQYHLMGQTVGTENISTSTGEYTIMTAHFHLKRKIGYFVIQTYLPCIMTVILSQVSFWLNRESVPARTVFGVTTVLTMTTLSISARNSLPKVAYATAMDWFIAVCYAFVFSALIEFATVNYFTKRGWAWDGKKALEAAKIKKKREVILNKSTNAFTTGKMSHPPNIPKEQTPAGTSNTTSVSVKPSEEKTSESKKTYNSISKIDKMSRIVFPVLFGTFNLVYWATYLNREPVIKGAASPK
T1 sequence (P28472 26-473 partner): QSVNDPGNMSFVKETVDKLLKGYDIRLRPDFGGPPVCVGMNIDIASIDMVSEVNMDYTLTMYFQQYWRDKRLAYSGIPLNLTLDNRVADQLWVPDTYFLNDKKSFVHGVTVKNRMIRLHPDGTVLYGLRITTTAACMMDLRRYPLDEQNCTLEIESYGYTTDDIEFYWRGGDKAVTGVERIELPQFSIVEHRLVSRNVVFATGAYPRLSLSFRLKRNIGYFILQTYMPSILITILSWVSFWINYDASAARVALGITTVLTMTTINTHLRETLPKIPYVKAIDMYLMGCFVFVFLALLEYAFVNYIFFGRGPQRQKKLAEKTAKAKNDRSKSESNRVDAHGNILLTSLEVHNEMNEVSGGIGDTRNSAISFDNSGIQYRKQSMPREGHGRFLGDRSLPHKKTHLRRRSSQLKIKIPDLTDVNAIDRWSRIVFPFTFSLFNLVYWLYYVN
T1 sequence (P18507 40-475): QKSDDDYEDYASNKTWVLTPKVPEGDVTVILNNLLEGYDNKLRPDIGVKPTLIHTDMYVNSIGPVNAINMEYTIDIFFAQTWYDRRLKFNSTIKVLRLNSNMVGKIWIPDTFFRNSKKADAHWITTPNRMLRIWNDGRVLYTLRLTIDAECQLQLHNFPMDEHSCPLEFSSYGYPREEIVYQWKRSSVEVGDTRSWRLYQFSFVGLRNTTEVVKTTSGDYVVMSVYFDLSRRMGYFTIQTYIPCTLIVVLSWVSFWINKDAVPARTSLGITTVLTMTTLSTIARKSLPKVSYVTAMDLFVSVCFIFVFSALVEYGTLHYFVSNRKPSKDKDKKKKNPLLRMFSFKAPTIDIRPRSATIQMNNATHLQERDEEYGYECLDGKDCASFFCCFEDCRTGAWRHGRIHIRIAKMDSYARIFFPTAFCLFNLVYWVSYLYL
Outline: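 Membranes from mouse L(tk^−) cells stably expressing human α5β3γ2 GABAAR incubated 1 h at 4° C with 4 nM [^3H]Ro15-1788 and test compound; nonspecific binding with 1 μM TP003. Filter-bound radioactivity counted; Ki from IC50 by Cheng-Prusoff using measured Kd.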

[2] = molecular target: T2, human α5β3γ2 GABAARs in mouse L(tk−) cells (Homo sapiens, UniProt P18507+P31644); test: In vitro electrophysiological recording assay (α5-GABAAR relative efficacy), QPatch; format: cell-based; conditions: GABA EC10-20
T2 construct: expressed in transfected cells; host or cells: mouse L(tk−) cells, dexamethasone-inducible vector pMSGneo
T2 sequence (P31644 32-462): as the sequence (P31644 32-462) above
T2 sequence (P28472 26-473 partner): as the sequence (P28472 26-473 partner) above
T2 sequence (P18507 40-475): as the sequence (P18507 40-475) above
Outline: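 Whole-cell QPatch recordings at 20-22° C, −65 mV holding, in dexamethasone-induced (1 μM, 24 h) L(tk−) cells. Compound pre-applied ≥1 min, then co-applied with GABA EC10-20; percentage change in leak-corrected peak current, taken at ≥100× Ki, normalised to DMCM efficacy; 0.1% DMSO final.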

[3] = molecular target: T3, human α5β3γ2L GABAA receptors in HEK293 cells (Homo sapiens, UniProt P18507+P31644); test: In vitro electrophysiological recording assay (α5-GABAAR relative efficacy), SyncroPatch; format: cell-based; conditions: Conc 0.1 μM; GABA EC10-20
T3 construct: expressed in transfected cells
T3 sequence (P31644 32-462): as the sequence (P31644 32-462) above
T3 sequence (P28472 26-473 partner): as the sequence (P28472 26-473 partner) above
T3 sequence (P18507 40-475): as the sequence (P18507 40-475) above
Text: Mouse L(tk^−) cells stably expressing human α1β3γ2, α2β3γ2, α3β3γ2, α5β3γ2 GABAARs generated by transfection of the individual subunits in the dexamethasone-inducible expression vector pMSGneo in mouse L(tk^−) cells (Hadingham et al., 1993, Mol. Pharmacol. 43:970-975 and 1993, Mol. Pharmacol. 44:1211-1218) were used for binding and functional assays. For certain compounds, HEK293 cells stable expressing the human α1β3γ2L, α2β3γ2L, α3β3γ2L and α5β3γ2L GABAA receptors were used to evaluate their functional effects in a SyncroPatch electrophysiology assay.
The efficacy of modulators was evaluated using either the automated patch-clamp platform QPatch16 (Sophion, Copenhagen, Denmark) or the SyncroPatch 384i (Nanion Technologies, Germany). Cells were harvested from flasks by enzymatic dissociation and re-suspended in serum-free medium.
For the Syncropatch recordings, a stacked addition protocol was used, in which GABA was rapidly applied and then washed off from the cell. All experiments were carried out at room temperature (20-22° C.) using a standard whole cell procedure. The currents recorded were acquired at 2 kHz and filtered using a Bessel filter. Whole-cell currents were measured at a holding potential of −80 mV.
For Syncropatch recordings, the extracellular recording solution contained: 140 mM NaCl, 4 mM KCl, 2 mM CaCl2), 1 mM MgCl2, 10 mM HEPES, 5 mM glucose (pH 7.4 and osmolarity of c. 300-310 mOsm/L). The intracellular recording solution contained: 90 mM KCl, 50 mM KF, 1.5 mM MgCl2, 11.1 mM EGTA and 10 mM HEPES (pH 7.2 and osmolarity of c. 300 mOsm/L). 2 mM of NaATP was added to the intracellular solution on the day of testing.
The effects of modulators were evaluated in the presence of a submaximal GABA concentration, giving typically 10-20% activation (GABA EC10-20) of the response elicited by a saturating GABA concentration. For QPatch recordings, to check and ensure baseline current stability before compound addition, five consecutive applications of GABA EC10-20 alone (each application with a 2 s duration, separated by minimum 1 min wash off periods) were performed before compound addition. The test compound was applied using the pipetting system of the QPatch system 1 min at least prior to co-application with GABA EC10-20. For SyncroPatch recordings, GABA EC20 alone was applied three times (1 s long applications, with wash steps in-between) before compound addition. This was followed by a 1-2 min pre-incubation with the test compound and then re-application of GABA EC10-20 in the presence of the compound. Finally, following a further wash step, a saturating concentration of GABA was applied, allowing the accurate evaluation for each cell of the percentage baseline activation elicited by the submaximal GABA applied.
The compounds were first dissolved in DMSO as a 10 mM stock and then further diluted to the testing concentrations so that the final DMSO concentration in the extracellular recording solution was kept constant at 0.1% for the QPatch recordings, or 0.2% for the SyncroPatch recordings.
The % efficacy of modulators was determined from the GABA elicited currents recorded in the presence and absence of the test compound, using the formula:
[((compound peak current−leak)−(GABA peak current−leak))/(GABA peak current−leak)]*100,
where ‘leak’ is the leak baseline current at −65 mV, ‘compound peak current’ is the current elicited by co-application of compound and GABA, and ‘GABA peak current’ is the current elicited by GABA alone during the 5th GABA application. The results were presented as ‘relative efficacy’ for each compound generally at a concentration equal or higher than 100 times their determined Ki. The relative efficacy of a compound was calculated by normalising its efficacy to the efficacy of methyl-6,7-dimethoxy-4-ethyl-beta-carboline-3-carboxylate (DMCM) that was separately determined produced an attenuation of GABA-induced currents of −57±4%, n=5.

Row | SMILES | Ki [1] [nM] | α5-GABAAR Relative Efficacy (to DMCM), Qpatch ([2]; Conc 0.1 μM) | α5-GABAAR Relative Efficacy (to DMCM), SyncroPatch [3] | α5-GABAAR Relative Efficacy (to DMCM), Qpatch ([2]; Conc 0.3 μM) | α5-GABAAR Relative Efficacy (to DMCM), Qpatch ([2]; Conc 1 μM) | α5-GABAAR Relative Efficacy (to DMCM), Qpatch ([2]; Conc 3 μM)
1 | COc1nc(-c2cnc(N)nc2)ccc1NC(=O)c1c(-c2ccccc2)noc1C [Example 43, N-[6-(2-Aminopyrimidin-5-yl)-2-methoxy-3-pyridyl]-5-methyl-3-phenyl-isoxazole-4-carboxamide] | 0.5 | −0.76 | −0.90 |  |  | 
2 | CNc1ncc(-c2ccc(NC(=O)c3c(-c4ccccc4)noc3C)c(OC)n2)cn1 [Example 47, N-[2-Methoxy-6-[2-(methylamino)pyrimidin-5-yl]-3-pyridyl]-5-methyl-3-phenyl-isoxazole-4-carboxamide] | 0.8 | −0.81 | −1.00 |  |  | 
3 | COc1nc(-c2cnc(C(F)(F)F)nc2)ccc1NC(=O)c1c(-c2ccccc2)noc1C [Example 53, N-[2-Methoxy-6-[2-(trifluoromethyl)pyrimidin-5-yl]-3-pyridyl]-5-methyl-3-phenyl-isoxazole-4-carboxamide] | 2.4 |  | −0.83 | −0.92 |  | 
4 | COc1nc(-c2cnc(N)cn2)ccc1NC(=O)c1c(-c2ccccc2)noc1C.Cl [Example 55, N-[6-(5-Aminopyrazin-2-yl)-2-methoxy-3-pyridyl]-5-methyl-3-phenyl-isoxazole-4-carboxamide hydrochloride] | 3.4 |  | −0.93 |  | −0.92 | 
5 | COc1nc(-c2cnc(N)nc2)cnc1NC(=O)c1c(-c2ccccc2)noc1C [Example 67, N-[5-(2-Aminopyrimidin-5-yl)-3-methoxy-pyrazin-2-yl]-5-methyl-3-phenyl-isoxazole-4-carboxamide] | 0.6 | −0.94 | −1.14 |  |  | 
6 | COc1nc(-c2cnoc2)ccc1NC(=O)c1c(-c2ccccc2)noc1C [Example 68, N-(6-Isoxazol-4-yl-2-methoxy-3-pyridyl)-5-methyl-3-phenyl-isoxazole-4-carboxamide] | 3.2 |  | −0.56 |  | −0.66 | 
7 | COc1nc(-c2cnc(CN(C)C)nc2)ccc1NC(=O)c1c(-c2ccccc2)noc1C [Example 74, N-[6-[2-[(Dimethylamino)methyl]pyrimidin-5-yl]-2-methoxy-3-pyridyl]-5-methyl-3-phenyl-isoxazole-4-carboxamide] | 2.1 |  | −0.62 | −1.00 |  | 
8 | COc1nc(-c2cnn3ncccc23)ccc1NC(=O)c1c(-c2ccccc2)noc1C [Example 83, N-(2-Methoxy-6-(pyrazolo[1,5-b]pyridazin-3-yl)pyridin-3-yl)-5-methyl-3-phenylisoxazole-4-carboxamide] | 13 |  | −0.50 |  |  | −0.71
9 | COc1nc(-c2cnc(N3CCC(O)CC3)nc2)ccc1NC(=O)c1c(-c2ccccc2)noc1C [Example 85, N-(6-(2-(4-Hydroxypiperidin-1-yl)pyrimidin-5-yl)-2-methoxypyridin-3-yl)-5-methyl-3-phenylisoxazole-4-carboxamide] | 1.7 |  | −0.94 | −0.92 |  | 
10 | COc1nc(-c2cncc(OC(F)F)c2)ccc1NC(=O)c1c(-c2ccccc2)noc1C [Example 87, N-(5′-(Difluoromethoxy)-6-methoxy-[2,3′-bipyridin]-5-yl)-5-methyl-3-phenylisoxazole-4-carboxamide] | 5 |  | −0.44 |  | −0.71 | 
11 | COc1nc(-c2ccc(N)nc2)ccc1NC(=O)c1c(-c2ccccc2)noc1C [Example 89, N-(6′-Amino-6-methoxy-[2,3′-bipyridin]-5-yl)-5-methyl-3-phenylisoxazole-4-carboxamide] | 3.1 |  | −0.62 |  | −0.64 | 
12 | COc1nc(-c2cnc(O)c(C(F)(F)F)c2)ccc1NC(=O)c1c(-c2ccccc2)noc1C [Example 107, N-(6′-Hydroxy-6-methoxy-5′-(trifluoromethyl)-[2,3′-bipyridin]-5-yl)-5-methyl-3-phenylisoxazole-4-carboxamide] | 13.5 |  | −0.47 |  |  | −0.66
13 | COc1nc(-c2cnc(CN)nc2)ccc1NC(=O)c1c(-c2ccccc2)noc1C.Cl [Example 126, N-[6-[2-(Aminomethyl)pyrimidin-5-yl]-2-methoxy-3-pyridyl]-5-methyl-3-phenyl-isoxazole-4-carboxamide hydrochloride] | 1.1 |  | −0.55 | −0.68 |  | 
14 | COc1nc(-c2ccc(N)nn2)ccc1NC(=O)c1c(-c2ccccc2)noc1C [Example 127, N-[6-(6-Aminopyridazin-3-yl)-2-methoxy-3-pyridyl]-5-methyl-3-phenyl-isoxazole-4-carboxamide] | 21.8 |  | −0.57 |  |  | −0.72
15 | COc1nc(-c2cnc(C(N)=O)nc2)ccc1NC(=O)c1c(-c2ccccc2)noc1C [Example 129, N-[6-(2-Carbamoylpyrimidin-5-yl)-2-methoxy-3-pyridyl]-5-methyl-3-phenyl-isoxazole-4-carboxamide] | 0.8 | −0.77 | −0.72 |  |  | 
16 | COc1nc(-c2cnc3n2CCN(C)C3)ccc1NC(=O)c1c(-c2ccccc2)noc1C [Example 137, N-(2-Methoxy-6-(7-methyl-5,6,7,8-tetrahydroimidazol[1,2-a]pyrazin-3-yl)pyridin-3-yl)-5-methyl-3-phenylisoxazole-4-carboxamide] | 3.8 |  | −0.69 |  | −0.80 | 
